The source made the active and inactive calls. How the calls were made is not given here.
Test system: rodent carcinogenicity bioassays, tumor incidence
Experiment: CCRIS carcinogenicity studies
In short: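 Archive of carcinogenicity, mutagenicity, tumor promotion and tumor inhibition results drawn from journals, NCI reports and other sources, expert-reviewed; covers 1985-2011 and is no longer updated.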

Measured: carcinogen call

CC(=O)CN(CC(C)=O)N=O
active: Species: GUINEA PIG, Strain/Sex: STRAIN-13/MALE, Route: SUBCUTANEOUS, Dose: 70 MG/KG/WK FOR 2 WK FOLLOWED BY 1 WK NO TREATMENT THEN 20 MG/KG/WK FOR 2 WK, Tumor Site: Type of Lesion: LIVER: CHOLANGIOMA, CHOLANGIOCARCINOMA active; positive | Species: HAMSTER, Strain/Sex: SYRIAN/FEMALE, Route: SUBCUTANEOUS, Dose: 2.5, 5, 10 MG/KG, Dose: 2.5, 5, 10 MG/KG, Tumor Site: Type of Lesion: PANCREAS: DUCTAL ADENOMA, INTRADUCTAL CARCINOMA, ADENOCARCINOMA, LUNG: ADENOMA, ADENOCARCINOMA, SQUAMOUS CELL CARCINOMA;, Tumor Site: Type of Lesion: PANCREAS: DUCTAL ADENOMA, INTRADUCTAL CARCINOMA, ADENOCARCINOMA, LUNG: ADENOMA, ADENOCARCINOMA, SQUAMOUS CELL CARCINOMA active; positive | Species: HAMSTER, Strain/Sex: SYRIAN/MALE,FEMALE, Route: ORAL, Dose: 0.35, 0.7, 1.4% IN DRINKING WATER, Dose: 0.35, 0.7, 1.4% IN DRINKING WATER, Tumor Site: Type of Lesion: LIVER: CHOLANGIOMA, INTRADUCTAL CARCINOMA, CHOLANGIOCARCINOMA, GALL BLADDER: POLYP, COMMON BILE DUCT: POLYP, COMMON DUCT, Tumor Site: Type of Lesion: LIVER: CHOLANGIOMA, INTRADUCTAL CARCINOMA, CHOLANGIOCARCINOMA, GALL BLADDER: POLYP, COMMON BILE DUCT: POLYP, COMMON DUCT active; positive | Species: HAMSTER, Strain/Sex: SYRIAN/MALE, Route: SUBCUTANEOUS, Dose: 2.5, 5, 10 MG/KG, Dose: 2.5, 5, 10 MG/KG, Tumor Site: Type of Lesion: PANCREAS: DUCTAL ADENOMA, INTRADUCTAL CARCINOMA, ADENOCARCINOMA, LUNG: ADENOMA, ADENOCARCINOMA, GALL BLADDER: PAPILLARY, Tumor Site: Type of Lesion: PANCREAS: DUCTAL ADENOMA, INTRADUCTAL CARCINOMA, ADENOCARCINOMA, LUNG: ADENOMA, ADENOCARCINOMA, GALL BLADDER: PAPILLARY active; positive | Species: MOUSE, Strain/Sex: ICR/FEMALE, Route: SUBCUTANEOUS, Dose: 0, 10, 20, 40 MG/KG BW IN 1% GELATIN SOLUTION ON DAYS 1, 8, 15 AND 22 OF AGE (STUDY DURATION: 1 YR), Dose: 0, 10, 20, 40 MG/KG BW IN 1% GELATIN SOLUTION ON DAYS 1, 8, 15 AND 22 OF AGE (STUDY DURATION: 1 YR), Tumor Site: Type of Lesion: NASAL CAVITY: TUMOR, LUNG: TUMOR, LIVER: TUMOR, Tumor Site: Type of Lesion: NASAL CAVITY: TUMOR, LUNG: TUMOR, LIVER: TUMOR active; positive | Species: MOUSE, Strain/Sex: ICR/MALE, Route: SUBCUTANEOUS, Dose: 0, 10, 20, 40 MG/KG BW IN 1% GELATIN SOLUTION ON DAYS 1, 8, 15 AND 22 OF AGE (STUDY DURATION: 1 YR), Dose: 0, 10, 20, 40 MG/KG BW IN 1% GELATIN SOLUTION ON DAYS 1, 8, 15 AND 22 OF AGE (STUDY DURATION: 1 YR), Tumor Site: Type of Lesion: NASAL CAVITY: TUMOR, LUNG: TUMOR, LIVER: TUMOR, Tumor Site: Type of Lesion: NASAL CAVITY: TUMOR, LUNG: TUMOR, LIVER: TUMOR active; positive | Species: RAT, Strain/Sex: CD-1/FEMALE, Route: SUBCUTANEOUS, Dose: 0, 5.35, 10.7, 21.4 MG/KG 1/WK FOR LIFE (STUDY DURATION: LIFE), Dose: 0, 5.35, 10.7, 21.4 MG/KG 1/WK FOR LIFE (STUDY DURATION: LIFE), Tumor Site: Type of Lesion: NASAL CAVITY: TUMOR active; positive | Species: RAT, Strain/Sex: CD-1/MALE, Route: SUBCUTANEOUS, Dose: 0, 6.15, 12.3, 24.6 MG/KG 1/WK FOR LIFE (STUDY DURATION: LIFE), Dose: 0, 6.15, 12.3, 24.6 MG/KG 1/WK FOR LIFE (STUDY DURATION: LIFE), Tumor Site: Type of Lesion: NASAL CAVITY: TUMOR active; positive | Species: RAT, Strain/Sex: F344/FEMALE, Route: INTRAVESICULAR, Dose: 0, 0.8 MG IN 0.2 ML ETHANOL: DEIONIZED WATER (1:3) 2/WK FOR 30 WK (TOTAL DOSE 0.3 MMOL) (STUDY DURATION: LIFESPAN), Tumor Site: Type of Lesion: BLADDER: TRANSITIONAL CELL CARCINOMA, TRANSITIONAL CELL PAPILLOMA, LUNG: TUMOR, KIDNEY: MESENCHYMAL NEOPLASM, LIVER: TUM, Tumor Site: Type of Lesion: BLADDER: TRANSITIONAL CELL CARCINOMA, TRANSITIONAL CELL PAPILLOMA, LUNG: TUMOR, KIDNEY: MESENCHYMAL NEOPLASM, LIVER: TUM active; positive | Species: RAT, Strain/Sex: F344/FEMALE, Route: ORAL, Dose: 0, 55 MG/L DRINKING WATER 5 D/WK FOR 50 WK (TOTAL DOSE 275 MG) (STUDY DURATION: LIFESPAN), Tumor Site: Type of Lesion: LIVER: CARCINOMA, ANGIOSARCOMA, LUNG: TUMOR active; positive | Species: RAT, Strain/Sex: F344/FEMALE, Route: SUBCUTANEOUS, Dose: 0, 10 MG/KG/BW 2/WK FOR A TOTAL OF 11 DOSES BEGINNING AT 2 D OF AGE (STUDY DURATION: 26 WK), Tumor Site: Type of Lesion: LIVER: HEPATOCELLULAR CARCINOMA, KIDNEY: NEPHROBLASTOMA active; positive | Species: RAT, Strain/Sex: F344/MALE, Route: SUBCUTANEOUS, Dose: 0, 10 MG/KG/BW 2/WK FOR A TOTAL OF 11 DOSES BEGINNING AT 2 D OF AGE (STUDY DURATION: 26 WK), Tumor Site: Type of Lesion: LIVER: HEPATOCELLULAR CARCINOMA, KIDNEY: NEPHROBLASTOMA, TESTIS: GONADAL STROMAL TUMOR, Tumor Site: Type of Lesion: LIVER: HEPATOCELLULAR CARCINOMA, KIDNEY: NEPHROBLASTOMA, TESTIS: GONADAL STROMAL TUMOR active; positive | Species: RAT, Strain/Sex: MRC/MALE,FEMALE, Route: SUBCUTANEOUS, Dose: 2.5, 5, 10 MG/KG, Dose: 2.5, 5, 10 MG/KG, Tumor Site: Type of Lesion: THYROID GLAND: FOLLICULAR ADENOMA, CARCINOMA active; positive | Species: RAT, Strain/Sex: SPRAGUE-DAWLEY/FEMALE, Route: SUBCUTANEOUS, Dose: 0, 5.35, 10.7, 21.4 MG/KG BW IN 0.9% SALINE 1/WK FOR DURATION OF STUDY (STUDY DURATION: 96 WK), Dose: 0, 5.35, 10.7, 21.4 MG/KG BW IN 0.9% SALINE 1/WK FOR DURATION OF STUDY (STUDY DURATION: 96 WK), Tumor Site: Type of Lesion: KIDNEY (RENAL PELVIS): TUMOR, URETER: TUMOR, URINARY BLADDER: TUMOR, Tumor Site: Type of Lesion: KIDNEY (RENAL PELVIS): TUMOR, URETER: TUMOR, URINARY BLADDER: TUMOR active; positive | Species: RAT, Strain/Sex: SPRAGUE-DAWLEY/MALE, Route: SUBCUTANEOUS, Dose: 0, 6.15, 12.3, 24.6 MG/KG BW IN 0.9% SALINE 1/WK FOR DURATION OF STUDY (STUDY DURATION: 96 WK), Dose: 0, 6.15, 12.3, 24.6 MG/KG BW IN 0.9% SALINE 1/WK FOR DURATION OF STUDY (STUDY DURATION: 96 WK), Tumor Site: Type of Lesion: KIDNEY (RENAL PELVIS): TUMOR, URINARY BLADDER: TUMOR active; positive
